Test results taken from US20250313572A1, “MACROCYCLIC MCL-1 INHIBITORS AND METHODS OF USE” (AbbVie Inc., priority 2017, published 2025).
Like-named read-outs stand apart in the source and are kept apart here.

Experiments:
[1] = tested on: AMO-1 human multiple myeloma tumor cell line; experiment: AMO-1 cell viability assay (CellTiter-Glo, 24 hours); type: cell-based; details: Homo sapiens
[2] = tested on: NCI-H929 human multiple myeloma tumor cell line; experiment: NCI-H929 cell viability assay (CellTiter-Glo, 24 hours); type: cell-based; details: Homo sapiens
GST-MCL-1 = GST-MCL-1 (Homo sapiens, UniProt Q07820); experiment: TR-FRET MCL-1 binding assay (competition with probe F-Bak)
Chain of GST-MCL-1 (Q07820 whole entry): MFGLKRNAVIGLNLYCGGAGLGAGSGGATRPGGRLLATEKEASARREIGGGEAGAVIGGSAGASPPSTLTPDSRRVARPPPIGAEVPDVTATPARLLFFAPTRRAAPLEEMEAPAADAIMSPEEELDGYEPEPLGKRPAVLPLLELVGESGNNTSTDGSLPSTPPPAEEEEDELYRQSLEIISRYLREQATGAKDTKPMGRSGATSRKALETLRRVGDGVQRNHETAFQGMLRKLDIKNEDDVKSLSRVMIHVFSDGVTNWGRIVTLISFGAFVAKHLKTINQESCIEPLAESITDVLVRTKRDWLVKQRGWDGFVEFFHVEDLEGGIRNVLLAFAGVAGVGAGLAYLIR
Method in brief: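 Test compounds, 11 three-fold dilutions from 25 μM final, incubated 2 hours at room temperature with GST-MCL-1, F-Bak probe and Tb-anti-GST antibody. TR-FRET read at 340/35 nm excitation with 520/525 and 495/510 nm emission. Run without human serum and with 10% HS.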

[3] = AMO1, 24 h, read-out: AMO-1 Viability IC50 (μM, 10% FBS), 10% FBS, 24 hours of compound treatment
[4] = NCI-H929, 24 h, read-out: H929 Viability IC50 (μM, 10% FBS), 10% FBS, 24 hours of compound treatment
[5] = MCL-1 Binding Ki (nM, 10% HS), in the presence of 10% HS (human serum)
[6] = without HS, read-out: MCL-1 Binding Ki

Row | SMILES | IC50 [1, 3] [µM] | IC50 [2, 4] [µM] | Ki (GST-MCL-1; [5]) [nM] | Ki (GST-MCL-1; [6]) [nM] | IC50 ([1]; AMO1, read-out: AMO-1 Viability IC50 (μM), 10% FBS, 24 hours of compound treatment) [µM] | IC50 ([2]; NCI-H929, read-out: H929 Viability IC50 (μM), 10% FBS, 24 hours of compound treatment) [µM]
1 | COCCOCCOCCOc1ccccc1-c1nccc(COc2ccc3cc2C[C@H](C(=O)O)Oc2ncnc4sc(-c5ccc(F)cc5)c(c24)-c2c(C)c(Cl)c(c(Cl)c2C)O[C@H](CN2CCN(C)CC2)CO3)n1 [Example 15, (7R,16R,21S)-19,23-dichloro-1-(4-fluorophenyl)-10-{[2-(2-{2-[2-(2-methoxyethoxy)ethoxy]ethoxy}phenyl)pyrimidin-4-yl]methoxy}-20,22-dimethyl-16-[(4-methylpiperazin-1-yl)methyl]-7,8,15,16-tetrahydro-18,21-etheno-9,13-(metheno)-6,14,17-trioxa-2-thia-3,5-diazacyclononadeca[1,2,3-cd]indene-7-carboxylic Acid] | 0.000524 | 0.000751 | 0.152 | 0.015 |  | 
2 | Cc1c(Cl)c2c(Cl)c(C)c1-c1c(-c3ccc(F)cc3)sc3ncnc(c13)O[C@@H](C(=O)O)Cc1cc(ccc1OCc1ccnc(N3CCOCCOCCOCCOCC3)n1)OC[C@@H](CN1CCN(C)CC1)O2 [Example 115, (7R,16R)-19,23-dichloro-1-(4-fluorophenyl)-20,22-dimethyl-16-[(4-methylpiperazin-1-yl)methyl]-10-{[2-(1,4,7,10-tetraoxa-13-azacyclopentadecan-13-yl)pyrimidin-4-yl]methoxy}-7,8,15,16-tetrahydro-18,21-etheno-13,9-(metheno)-6,14,17-trioxa-2-thia-3,5-diazacyclononadeca[1,2,3-cd]indene-7-carboxylic Acid] | 0.000593 | 0.00113 | 0.862 | 0.093 |  | 
3 | COCCOCCOC[C@H]1CC=C(c2nccc(COc3ccc4cc3C[C@H](C(=O)O)Oc3ncnc5sc(-c6ccc(F)cc6)c(c35)-c3c(C)c(Cl)c(c(Cl)c3C)O[C@H](CN3CCN(C)CC3)CO4)n2)CC1 [Example 127, (7R,16R)-19,23-dichloro-1-(4-fluorophenyl)-10-({2-[(4R)-4-{[2-(2-methoxyethoxy)ethoxy]methyl}cyclohex-1-en-1-yl]pyrimidin-4-yl}methoxy)-20,22-dimethyl-16-[(4-methylpiperazin-1-yl)methyl]-7,8,15,16-tetrahydro-18,21-etheno-13,9-(metheno)-6,14,17-trioxa-2-thia-3,5-diazacyclononadeca[1,2,3-cd]indene-7-carboxylic acid] | 0.000124 | 0.000385 | 0.339 | 0.028 |  | 
4 | COCCOCCOCCOCCOCCOC[C@]1(F)CC[C@@H](c2nccc(COc3ccc4cc3C[C@H](C(=O)O)Oc3ncnc5sc(-c6ccc(F)cc6)c(c35)-c3c(C)c(Cl)c(c(Cl)c3C)O[C@H](CN3CCN(C)CC3)CO4)n2)CC1 [Example 113, (7R,16R)-19,23-dichloro-10-({2-[(1s,4s)-4-fluoro-4-(2,5,8,11,14,17-hexaoxaoctadecan-1-yl)cyclohexyl]pyrimidin-4-yl}methoxy)-1-(4-fluorophenyl)-20,22-dimethyl-16-[(4-methylpiperazin-1-yl)methyl]-7,8,15,16-tetrahydro-18,21-etheno-13,9-(metheno)-6,14,17-trioxa-2-thia-3,5-diazacyclononadeca[1,2,3-cd]indene-7-carboxylic Acid] | 0.00028 | 0.00064 | 0.065 | 0.016 |  | 
5 | COCCOCCOCCOCCOCCOCCOCC1(c2nccc(COc3ccc4cc3C[C@H](C(=O)O)Oc3ncnc5sc(-c6ccc(F)cc6)c(c35)-c3c(C)c(Cl)c(c(Cl)c3C)O[C@H](CN3CCN(C)CC3)CO4)n2)CCC1 [Example 60, (7R,16R)-19,23-dichloro-1-(4-fluorophenyl)-10-({2-[1-(2,5,8,11,14,17,20-heptaoxahenicosan-1-yl)cyclobutyl]pyrimidin-4-yl}methoxy)-20,22-dimethyl-16-[(4-methylpiperazin-1-yl)methyl]-7,8,15,16-tetrahydro-18,21-etheno-13,9-(metheno)-6,14,17-trioxa-2-thia-3,5-diazacyclononadeca[1,2,3-cd]indene-7-carboxylic Acid] | 0.000987 | 0.00115 | 0.125 | 0.042 |  | 
6 | COCCOCCOCCOCCOc1nccc(COc2ccc3cc2C[C@H](C(=O)O)Oc2ncnc4sc(-c5ccc(F)cc5)c(c24)-c2c(C)c(Cl)c(c(Cl)c2C)O[C@H](CN2CCN(C)CC2)CO3)n1 [Example 89, (7R,16R)-19,23-dichloro-1-(4-fluorophenyl)-20,22-dimethyl-16-[(4-methylpiperazin-1-yl)methyl]-10-({2-[(2,5,8,11-tetraoxatridecan-13-yl)oxy]pyrimidin-4-yl}methoxy)-7,8,15,16-tetrahydro-18,21-etheno-13,9-(metheno)-6,14,17-trioxa-2-thia-3,5-diazacyclononadeca[1,2,3-cd]indene-7-carboxylic Acid] | 0.00262 | 0.00299 | 0.485 | 0.067 |  | 
7 | Cc1c(Cl)c2c(Cl)c(C)c1-c1c(-c3ccc(F)cc3)sc3ncnc(c13)O[C@@H](C(=O)O)Cc1cc(ccc1OCc1ccnc(-c3ccc(OC(=O)N4CCOCC4)cc3)n1)OC[C@@H](CN1CCN(C)CC1)O2 [Example 151, (7R,16R)-19,23-dichloro-1-(4-fluorophenyl)-20,22-dimethyl-16-[(4-methylpiperazin-1-yl)methyl]-10-[(2-{4-[(morpholine-4-carbonyl)oxy]phenyl}pyrimidin-4-yl)methoxy]-7,8,15,16-tetrahydro-18,21-etheno-9,13-(metheno)-6,14,17-trioxa-2-thia-3,5-diazacyclononadeca[1,2,3-cd]indene-7-carboxylic Acid] |  |  | 0.325 | 0.01 | 0.000303 | 0.000735
8 | Cc1c(Cl)c2c(Cl)c(C)c1-c1c(-c3ccc(F)cc3)sc3ncnc(c13)O[C@@H](C(=O)O)Cc1cc(ccc1OCc1ccnc(N3CC4CC(C4)C3)n1)OC[C@@H](CN1CCN(C)CC1)O2 [Example 171, (7R,16R)-10-{[2-(3-azabicyclo[3.1.1]heptan-3-yl)pyrimidin-4-yl]methoxy}-19,23-dichloro-1-(4-fluorophenyl)-20,22-dimethyl-16-[(4-methylpiperazin-1-yl)methyl]-7,8,15,16-tetrahydro-18,21-etheno-13,9-(metheno)-6,14,17-trioxa-2-thia-3,5-diazacyclononadeca[1,2,3-cd]indene-7-carboxylic Acid] | 0.00112 | 0.00757 | 3.98 | 0.1 |  | 
9 | Cc1c(Cl)c2c(Cl)c(C)c1-c1c(-c3ccc(F)cc3)sc3ncnc(c13)O[C@@H](C(=O)O)Cc1cc(ccc1OCc1ccnc([C@]3(O)CCCC[C@H]3O)n1)OC[C@@H](CN1CCN(C)CC1)O2 [Example 39, (7R,16R)-19,23-dichloro-10-({2-[(1R,2R)-1,2-dihydroxycyclohexyl]pyrimidin-4-yl}methoxy)-1-(4-fluorophenyl)-20,22-dimethyl-16-[(4-methylpiperazin-1-yl)methyl]-7,8,15,16-tetrahydro-18,21-etheno-9,13-(metheno)-6,14,17-trioxa-2-thia-3,5-diazacyclononadeca[1,2,3-cd]indene-7-carboxylic Acid] | 0.00119 | 0.00353 | 0.193 | 0.042 |  | 
10 | COCCOCCOCCOc1ccc(-c2nccc(COc3ccc4cc3C[C@H](C(=O)O)Oc3ncnc5sc(-c6ccc(F)cc6)c(c35)-c3ccc(c(Cl)c3C)O[C@H](CN3CCN(C)CC3)CO4)n2)cc1 (atropisomer, axis not shown) [Example 13, (7R,16R,21S)-19-chloro-1-(4-fluorophenyl)-10-{[2-(4-{2-[2-(2-methoxyethoxy)ethoxy]ethoxy}phenyl)pyrimidin-4-yl]methoxy}-20-methyl-16-[(4-methylpiperazin-1-yl)methyl]-7,8,15,16-tetrahydro-18,21-etheno-13,9-(metheno)-6,14,17-trioxa-2-thia-3,5-diazacyclononadeca[1,2,3-cd]indene-7-carboxylic Acid] | 0.00046 | 0.001 | 0.251 | 0.054 |  | 
11 | Cc1c2ccc(c1Cl)O[C@H](CN1CCN(C)CC1)COc1ccc(OCc3ccnc(-c4cccc(=O)n4C)n3)c(c1)C[C@H](C(=O)O)Oc1ncnc3sc(-c4ccc(F)cc4)c-2c13 [Example 28, (7R,16R)-19-chloro-1-(4-fluorophenyl)-20-methyl-10-{[2-(1-methyl-6-oxo-1,6-dihydropyridin-2-yl)pyrimidin-4-yl]methoxy}-16-[(4-methylpiperazin-1-yl)methyl]-7,8,15,16-tetrahydro-18,21-etheno-13,9-(metheno)-6,14,17-trioxa-2-thia-3,5-diazacyclononadeca[1,2,3-cd]indene-7-carboxylic Acid] | 0.00269 | 0.00583 | 0.027 | 0.021 |  | 
12 | Cc1c(Cl)c2c(Cl)c(C)c1-c1c(-c3ccc(F)cc3)sc3ncnc(c13)O[C@@H](C(=O)O)Cc1cc(ccc1OCc1ccnc(N3C[C@H]4C[C@@H](C3)[C@H]4O)n1)OC[C@@H](CN1CCN(C)CC1)O2 [Example 167, (7R,16R)-19,23-dichloro-1-(4-fluorophenyl)-10-({2-[(1R,5S,6r)-6-hydroxy-3-azabicyclo[3.1.1]heptan-3-yl]pyrimidin-4-yl}methoxy)-20,22-dimethyl-16-[(4-methylpiperazin-1-yl)methyl]-7,8,15,16-tetrahydro-18,21-etheno-13,9-(metheno)-6,14,17-trioxa-2-thia-3,5-diazacyclononadeca[1,2,3-cd]indene-7-carboxylic Acid] | 0.002 | 0.00892 | 0.698 | 0.06 |  | 
